Reference: patent US6706740B2, “Fungicidal heterocyclic aromatic amides and their compositions, methods of use and preparation” (Dow AgroSciences LLC, priority 1999, dated 2004)
Where two headings read alike, the source gives them in different places.

What was measured:
[1] = tested on: Magnaporthe grisea (Pyricularia oryzae—PYRIOR); experiment: microbe, parasite or virus in culture; type: cell-based; settings: Pyricularia oryzae, read-out: PYRIOR in vitro Growth Inhibition
[2] = tested on: Rhizoctonia solani (RHIZSO); experiment: microbe, parasite or virus in culture; type: cell-based; settings: Rhizoctonia solani, read-out: RHIZSO in vitro Growth Inhibition
[3] = tested on: Mycosphaerella graminicola (Septoria tritici—SEPTTR); experiment: In vitro fungal growth inhibition, Mycosphaerella graminicola (SEPTTR); type: cell-based; settings: Zymoseptoria tritici, read-out: SEPTTR in vitro Growth Inhibition
[4] = tested on: Stagonospora nodorum (Leptosphaeria nodorum—LEPTNO); experiment: In vitro fungal growth inhibition, Stagonospora nodorum (LEPTNO); type: cell-based; settings: Leptosphaeria, read-out: LEPTNO in vitro Growth Inhibition
Ustilago maydis (USTIMA) = experiment: microbe, parasite or virus in culture; type: cell-based; settings: Mycosarcoma maydis, read-out: USTIMA in vitro Growth Inhibition
[5] = tested on: Phytophthora infestans (PHYTIN); experiment: microbe, parasite or virus in culture; type: cell-based; settings: Phytophthora infestans, read-out: PHYTIN in vitro Growth Inhibition
[6] = tested on: Phytophthora infestans—PHYTIN; experiment: whole plant or invertebrate; type: in vivo; settings: Phytophthora, in Solanum lycopersicum, 24 h, read-out: PHYTIN in vivo 1 Day Protectant
[7] = tested on: Puccinia recondita—PUCCRT; experiment: Brown Rust of Wheat, in vivo whole plant, 24 Hour Protectant; settings: control of fungal infection vs untreated plants; for pest or weed control at 100 ppm: Puccinia, read-out: PUCCRT in vivo 1 Day Protectant
Erysiphe graminis—ERYSGT = experiment: Powdery Mildew of Wheat, in vivo whole plant, 24 Hour Protectant; settings: Erysiphe, control of fungal infection vs untreated plants, read-out: ERYSGT in vivo 1 Day Protectant
Septoria tritici—SEPTTR = experiment: Leaf Blotch of Wheat, in vivo whole plant, 24 Hour Protectant; settings: Zymoseptoria tritici, 24 h, control of fungal infection vs untreated plants, read-out: SEPTTR in vivo 1 Day Protectant
[8] = tested on: Leptosphaeria nodorum—LEPTNO; experiment: Glume Blotch of Wheat, in vivo whole plant, 24 Hour Protectant; settings: Leptosphaeria, control of fungal infection vs untreated plants, read-out: LEPTNO in vivo 1 Day Protectant
[9] = wheat plants sprayed at 100 ppm, inoculated after 24 hours
[10] = 100 ppm spray, 24 hour protectant, wheat
[11] = 100 ppm spray, wheat, 24 hour protectant

SMILES | inhibition at 25 ppm [1] | inhibition at 25 ppm [2] | inhibition at 25 ppm ([3]; 25 ppm in the growth medium) | inhibition at 25 ppm ([4]; 25 ppm in the growth medium) | inhibition at 25 ppm (Ustilago maydis (USTIMA)) | inhibition at 25 ppm [5] | pest or weed control at 100 ppm [6] | pest or weed control at 100 ppm [7, 9] | pest or weed control at 100 ppm (Erysiphe graminis—ERYSGT; [9]) | pest or weed control at 100 ppm (Septoria tritici—SEPTTR; [9]) | pest or weed control at 100 ppm [8, 9] | melting point | inhibition at 25 ppm ([3]; 25 ppm in growth medium) | inhibition at 25 ppm ([4]; 25 ppm in growth medium) | other results
COc1ccnc(C(=O)Nc2ccc(Oc3cc(C(F)(F)F)ccn3)cc2)c1O [Compound 461] | < 80% | < 80% | < 80% | < 80% | < 80% | < 80% | < 25% | 25 to 74% | < 25% | 25 to 74% | 25 to 74% | 169 to 171 °C |  |  | 
CC1(C)CC(NC(=O)c2nscc2O)CC(C)(C)C1 [Compound 549] | < 80% | < 80% | > 80% | < 80% | < 80% | > 80% | < 25% | < 25% | < 25% | 25 to 74% | 25 to 74% | 121 to 125 °C |  |  | 
COc1ccnc(C(=O)Nc2ccc(Oc3cc(C(F)(F)F)cc(C(F)(F)F)n3)cc2)c1O [Compound 464] | < 80% | < 80% | < 80% | < 80% | < 80% | < 80% | < 25% | < 25% | < 25% | 25 to 74% | 25 to 74% | 179 to 181 °C |  |  | 
COc1ccnc(C(=O)NC2CC(C)(C)C(OC(=O)c3cccc(Cl)n3)C(C)(C)C2)c1O (stereo not drawn) [Compound 269] | < 80% | < 80% |  |  | < 80% | < 80% | < 25% |  |  |  |  | 55 to 65 °C | < 80% | < 80% | pest or weed control at 100 ppm [7, 10]: 25 to 74%; pest or weed control at 100 ppm (Erysiphe graminis—ERYSGT; [10]): < 25%; pest or weed control at 100 ppm (Septoria tritici—SEPTTR; [10]): 25 to 74%; pest or weed control at 100 ppm [8, 10]: < 25%
COc1ccnc(C(=O)Nc2ccc(Oc3cccc(C(F)(F)F)n3)cc2)c1O [Compound 463] | < 80% | < 80% | < 80% | < 80% | < 80% | < 80% | < 25% | < 25% | < 25% | 25 to 74% | < 25% | 140 to 141.5 °C |  |  | 
Cc1ccnc(C(=O)Nc2ccc(Oc3cccc(C(F)(F)F)c3)cc2)c1O [Compound 238] | < 80% | < 80% |  |  | < 80% | < 80% | < 25% |  |  |  |  | 105 to 107 °C | < 80% | < 80% | pest or weed control at 100 ppm [7, 10]: < 25%; pest or weed control at 100 ppm (Erysiphe graminis—ERYSGT; [10]): < 25%; pest or weed control at 100 ppm (Septoria tritici—SEPTTR; [10]): < 25%; pest or weed control at 100 ppm [8, 10]: 25 to 74%
COc1ccnc(C(=O)Nc2cccc(Sc3ccc(C(F)(F)F)cc3)c2)c1O [Compound 444] | < 80% | < 80% |  |  | < 80% | < 80% | < 25% |  |  |  |  | 133 to 134 °C | < 80% | < 80% | pest or weed control at 100 ppm [7, 11]: 25 to 74%; pest or weed control at 100 ppm (Erysiphe graminis—ERYSGT; [11]): < 25%; pest or weed control at 100 ppm (Septoria tritici—SEPTTR; [11]): 25 to 74%; pest or weed control at 100 ppm [8, 11]: 25 to 74%
CC(C)C(=O)O[C@H]1[C@H](C)OC(=O)[C@@H](NC(=O)c2nc(Cl)c(Cl)nc2O)COC(=O)[C@@H]1Cc1ccccc1 [Compound 538] | < 80% | < 80% | < 80% | < 80% | < 80% | < 80% | < 25% | 25 to 74% | < 25% | 25 to 74% | 25 to 74% | 108 to 110 °C |  |  | 
COc1ccnc(C(=O)Nc2cccc(Oc3ccc(C(F)(F)F)cc3)n2)c1O [Compound 469] | > 80% | < 80% | < 80% | > 80% | < 80% | < 80% | < 25% |  | < 25% | 25 to 74% | 25 to 74% | 149 to 151 °C |  |  | PUCCRT in vivo 1 Day Protectant [7, 9]: + +
COc1ccnc(C(=O)Nc2cccc(C(=O)Nc3ccc(C(F)(F)F)cc3)c2)c1O [Compound 450] | < 80% | < 80% |  |  | < 80% | < 80% | < 25% |  |  |  |  | > 260 °C | < 80% | < 80% | pest or weed control at 100 ppm [7, 11]: < 25%; pest or weed control at 100 ppm (Erysiphe graminis—ERYSGT; [11]): < 25%; pest or weed control at 100 ppm (Septoria tritici—SEPTTR; [11]): 25 to 74%; pest or weed control at 100 ppm [8, 11]: 25 to 74%
COc1ccnc(C(=O)Nc2cccc(NC(=O)c3ccc(C(F)(F)F)cc3)c2)c1O [Compound 454] | < 80% | < 80% |  |  | < 80% | < 80% | < 25% |  |  |  |  | 240 to 242 °C | < 80% | < 80% | pest or weed control at 100 ppm [7, 11]: < 25%; pest or weed control at 100 ppm (Erysiphe graminis—ERYSGT; [11]): < 25%; pest or weed control at 100 ppm (Septoria tritici—SEPTTR; [11]): 25 to 74%; pest or weed control at 100 ppm [8, 11]: 25 to 74%
